Assays:
K562 cells = test: Apoptosis assay, flow cytometry with APO2.7 mAb, in K562 cells with or without 10 days of telomestatin; assay type: cell-based; settings: for APO2.7 (%): 48 hours, K562 control cells or cells cultured with telomestatin 2 μM for 10 days; for induction of apoptosis / chemosensitivity in telomestatin-treated K562 cells compared with control cells: after exposure to the agent, the negative results are data not shown
Method: Apoptosis assay. The incidence of apoptosis was determined by flow cytometric analysis with the FITC-conjugated APO2.7 monoclonal antibody (clone 2.7), which was raised against the 38 kDa mitochondrial membrane protein (7A6 antigen) and is expressed by cells undergoing apoptosis (Nakajima et al., 2001).
To assess the effects of telomerase inhibition in modulating responses to these reagents, experiments focused on early passaged telomestatin-treated K562 cells (PD10). In this series of experiments, K562 cells are cultured with telomestatin for 10 days, subsequently the telomestatin-treated K562 cells are incubated with the agents for 48 hours, and the incidence of apoptosis is determined by flow cytometric analysis with APO2.7 mAb (Table A). Apo2.7 is the apoptosis index. Higher score means that apoptosis is induced more powerfully.

OM9;22 or OM9;22R cells = test: Cell proliferation (growth kinetics) of OM9;22 / OM9;22R cells; assay type: cell-based, human; settings: OM9;22 or Imatinib-resistant OM9;22R cells
Method: Cells and cell culture: The Ph-positive acute lymphoblastic cell line OM9;22 has been described previously (Ohyashiki et al., 1993). K562 cells were obtained from the American Type Culture Collection (Rockville, Md.). These cell lines were cultured in McCoy's 5A modified medium (Life Technology, Inc.) supplemented with 10% fetal calf serum (Hyclone Laboratories, Logan, Utah).
Effects of telomestatin on cell proliferation. We characterize the growth properties of telomestatin-treated cells. […] In a further study, we can characterize the ability of telomestatin to inhibit BCR-ABL transformation.

[1] = system: human normal hematopoietic progenitor cells; test: Clonogenic assay on normal hematopoietic progenitor cells; assay type: cell-based; settings: at concentrations 10 times higher than those that completely inhibit colonies from OM9;22R cells

Structure (SMILES) | APO2.7 (%) (K562 cells; 10 nM agent) | APO2.7 (%) (K562 cells; 50 nM agent) | APO2.7 (%) (K562 cells; 100 nM agent) | APO2.7 (%) (K562 cells; 500 nM agent) | APO2.7 (%) (K562 cells; 1000 nM agent) | induction of apoptosis / chemosensitivity in telomestatin-treated K562 cells compared with control cells (K562 cells) | time until proliferation is slowed (OM9;22 or OM9;22R cells) | sensitivity of human normal hematopoietic progenitor cells [1]
CC[C@]1(O)C[C@H]2CN(CCc3c([nH]c4ccccc34)[C@@](C(=O)OC)(c3cc4c(cc3OC)N(C=O)[C@H]3[C@@](O)(C(=O)OC)[C@H](OC(C)=O)[C@]5(CC)C=CCN6CC[C@]43[C@@H]65)C2)C1 [VCR (control), vincristine] | 12% | 18% | 24% | 29% | 34% | enhanced induction of apoptosis | – | –
O=C1c2c(O)ccc(O)c2C(=O)c2c(NCCNCCO)ccc(NCCNCCO)c21 [MIT (control), mitoxantrone] | 10% | 12% | 17% | 29% | 38% | enhanced induction of apoptosis | – | –
COc1cccc2c1C(=O)c1c(O)c3c(c(O)c1C2=O)C[C@@](O)(C(C)=O)C[C@@H]3O[C@H]1C[C@H](N)[C@H](O)[C@H](C)O1 [DNR (control), Daunorubicin] | 11% | 23% | 36% | 53% | – | enhanced induction of apoptosis | – | –
Cc1oc2nc1-c1nc(co1)-c1nc(co1)-c1nc(co1)-c1nc(co1)-c1nc(co1)C1=NC(CS1)c1nc-2c(C)o1 (centres unmarked) [telomestatin] | – | – | – | – | – | – | ≤ 2 weeks | significantly less sensitive
Sc1ncnc2nc[nH]c12 [6-mercaptopurine (6-MP), 6-mercaptopurine] | – | – | – | – | – | significant chemosensitivity is not observed | – | –
COc1cc([C@@H]2c3cc4c(cc3[C@@H](O[C@@H]3O[C@@H]5CO[C@@H](C)O[C@H]5[C@H](O)[C@H]3O)[C@H]3COC(=O)[C@H]23)OCO4)cc(OC)c1O [etoposide (VP-16), etoposide] | – | – | – | – | – | significant chemosensitivity is not observed | – | –
Nc1ccn([C@@H]2O[C@H](CO)[C@@H](O)[C@@H]2O)c(=O)n1 [cytosine arabimoside, cytosine arabinoside] | – | – | – | – | – | significant chemosensitivity is not observed | – | –
CN(Cc1cnc2nc(N)nc(N)c2n1)c1ccc(C(=O)N[C@@H](CCC(=O)O)C(=O)O)cc1 [methotrexate (MTX), methotrexate] | – | – | – | – | – | significant chemosensitivity is not observed | – | –

From patent US7045523B2 (Novartis AG, priority 2001, dated 2006)
